Read-outs that look alike come from different tables or passages of the source.
How the values were obtained:
[1] = test system: Candida albicans ATCC 10231; experiment: Antimicrobial activity, agar well diffusion method; type: cell-based; details: 37 °C, 24 h
Description: (§1) Antimicrobial activity of compounds 1 to 6 and crude extracts 7a, 8a, 9a; 10 to 13 were measured using the agar well diffusion method. Bacterial and fungal pathogens such as S. aureus (ATCC 6538), E. coli (ATCC 11229) and C. albicans (ATCC 10231) were used as indicator strains for this analysis. These microorganisms were aseptically inoculated into appropriate liquid media and incubated at 37 °C. After 16 h, the cells were centrifuged at 6000 rpm for 10 min and then suspended in sterile water. The different cells (1 mL) were added to appropriate agar media (100 mL) prior to plating, and the wells were made using an agar well borer. To these wells, different concentrations of compounds 1 to 6 and the extracts 7a, 8a, 9a; 10 to 13 were added and subsequently incubated at 37 °C for 24 h. Zones of inhibition were estimated by measuring the diameter of the microbial growth inhibition zones. Values were averaged from three independent experiments.

[2] = test system: Escherichia coli ATCC 11229; experiment: Antimicrobial activity, agar well diffusion method; type: cell-based; details: 37 °C, 24 h
Description: as §1

[3] = test system: Staphylococcus aureus ATCC 6538; experiment: Antimicrobial activity, agar well diffusion method; type: cell-based; details: 37 °C, 24 h
Description: as §1

[4] = DPPH radical scavenging assay; details: 37 °C, 30 min, 515 nm; for IC50: pure compounds, read-out: DPPH Scavenging Effects, IC50 Values
Description: Radical scavenging assay was determined by a micro plate spectrophotometric method based on the reduction of DPPH according to the previous report. Various dilutions of pure compounds and crude extracts in the concentration range 0.0625 to 1 mM and 0.0625 to 1 mg∙mL^−1, respectively were made. Briefly DPPH solution (100 μL) and pure compound or crude extract in DMSO (100 μL) were added to each well of the micro plate and mixed. The mixture was shaken vigorously and left to stand at 37 °C for 30 min in dark. The absorbance of the solution was then measured at wavelength 515 nm using a micro plate spectrophotometer. Inhibition (%) of free radical (DPPH) was determined as [(Acontrol − Asample)/Acontrol] × 100, where: Acontrol is the absorbance of the control sample containing all reagents except the test sample and Asample is the absorbance of the test sample (pure compound or crude extract). Vitamin C was used as the positive control and tests were carried out in triplicate. The IC50 values were determined for all tested flavonoids, extract and control standard antioxidant.

[5] = target: T1, Protein tyrosine phosphatase 1B (PTP-1B) (Homo sapiens, UniProt P18031); experiment: Protein tyrosine phosphatase 1B (PTP-1B) inhibition assay with pNPP substrate; type: biochemical
T1 sequence (P18031 1-435): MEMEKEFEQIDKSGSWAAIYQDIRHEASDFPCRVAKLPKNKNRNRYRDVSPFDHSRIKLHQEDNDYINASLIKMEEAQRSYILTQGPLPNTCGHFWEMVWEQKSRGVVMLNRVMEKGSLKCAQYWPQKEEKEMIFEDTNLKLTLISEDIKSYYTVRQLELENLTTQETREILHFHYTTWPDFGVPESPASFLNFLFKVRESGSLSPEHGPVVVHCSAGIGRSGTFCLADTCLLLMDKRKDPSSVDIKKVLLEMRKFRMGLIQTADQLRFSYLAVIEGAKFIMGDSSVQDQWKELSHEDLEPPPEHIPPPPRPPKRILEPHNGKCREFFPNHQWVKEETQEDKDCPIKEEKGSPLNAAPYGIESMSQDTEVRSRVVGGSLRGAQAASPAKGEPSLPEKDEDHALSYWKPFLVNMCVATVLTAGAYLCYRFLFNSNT
Description: Compounds were pre-incubated with the enzyme at room temperature for 5 min. Then, 178 µL of buffer solution (20 mM HEPES, 150 mM NaCl, 1 mM EDTA) was added in 96-well plates. […] After that, 1 µL of test and positive control sample were added. Thereafter, 20 µL of the substrate pNPP (35 mM) was added and mixed for 10 min. The plate was incubated in the dark for 30 min and the reaction was terminated by adding 10 µL of 3 M NaOH. The absorbance was then determined at 405 nm wavelength. […] Inhibition (%) = [(OD405 − OD405 blank)/OD405 blank] × 100. IC50 was calculated from the percentage inhibition values.

[6] = pNPP substrate, absorbance at 405 nm

IC50 [4] [µM]	DPPH Scavenging Effects; IC50 Values ([4]; crude extracts) [µg/mL]	Compound	Inhibition Zone Diameter CA [1]	Inhibition Zone Diameter EC [2]	Inhibition Zone Diameter SA [3]	IC50 [5, 6] [µM]	IC50 [5] [µM]
–	–	C[C@@H]1[C@H](O)[C@@H](C)/C=C/C=C/C=C/C=C/C=C/C=C/C=C/[C@H](O[C@@H]2O[C@H](C)[C@@H](O)[C@H](N)[C@@H]2O)C[C@@H]2O[C@](O)(C[C@@H](O)C[C@@H](O)[C@H](O)CC[C@@H](O)C[C@@H](O)CC(=O)O[C@H]1C)C[C@H](O)[C@H]2C(=O)O [Amphotericin B, reference compound]	15 mm	–	–	–	–
–	–	CC1(C)S[C@@H]2[C@H](NC(=O)[C@H](N)c3ccccc3)C(=O)N2[C@H]1C(=O)O [Ampicillin, reference compound]	–	14 mm	19 mm	–	–
> 500	–	O=c1c(-c2c(O)cc(O)c3c(=O)cc(-c4ccc(O)cc4)oc23)c(-c2ccc(O)cc2)oc2cc(O)cc(O)c12 [Compound 1, 3-8′′-Bisapigenin]	n.e.	n.e.	5.5 mm	> 50	–
24.9 ± 1.4	–	O=c1c(O)c(-c2ccc(O)c(O)c2)oc2cc(O)cc(O)c12 [Compound 2, Quercetin]	6.5 mm	n.e.	12 mm	–	–
38.3 ± 2	–	O=c1c(O[C@@H]2O[C@@H](CO)[C@H](O)[C@H]2O)c(-c2ccc(O)c(O)c2)oc2cc(O)cc(O)c12 [Compound 3, Quercetin-3-O-α-L-arabinofuranoside]	n.e.	5.5 mm	n.e.	> 50	–
30.3 ± 2.4	5.34 ± 0.4	O=C1O[C@H]([C@@H](O)CO)C(O)=C1O [Vitamin C, reference compound]	–	–	–	–	–

Compound	IC50 [4] [µM]	DPPH Scavenging Effects; IC50 Values ([4]; crude extracts) [µg/mL]	Inhibition Zone Diameter CA [1]	Inhibition Zone Diameter EC [2]	Inhibition Zone Diameter SA [3]	IC50 [5, 6] [µM]	IC50 [5] [µM]
C[C@@H]1O[C@@H](Oc2c(-c3ccc(O)c(O)c3)oc3cc(O)cc(O)c3c2=O)[C@H](O)[C@H](O)[C@H]1O [Compound 4, Quercetin-3-O-α-L-rhamnoside]	32.1 ± 1.6	–	5.5 mm	8 mm	n.e.	–	> 50
O=c1c(O[C@@H]2O[C@H](CO)[C@@H](O)[C@H](O)[C@H]2O)c(-c2ccc(O)c(O)c2)oc2cc(O)cc(O)c12 [Compound 5, Quercetin-3-O-β-D-glucopyranoside]	24.8 ± 1.3	–	n.e.	n.e.	11 mm	> 50	–
O=c1c(O[C@@H]2O[C@H](CO)[C@H](O)[C@H](O)[C@H]2O)c(-c2ccc(O)c(O)c2)oc2cc(O)cc(O)c12 [Compound 6, Quercetin-3-O-β-D-galactopyranoside]	29.5 ± 1.5	–	n.e.	6.5 mm	11 mm	> 50	–

Source: paper PMC6272622, “Phytochemical Profiling and Evaluation of Pharmacological Activities of Hypericum scabrum L” (Molecules, 2015)
